Reference: patent publication US10894036B2, “Use of marizomib for the treatment of central nervous system (CNS) cancers” (Celgene International II Sàrl, priority 2016, dated 2021)
Entries after “also recorded” stand apart in the source; their conditions may differ. Where two headings read alike, the source gives them in different places.

Tests used:
[1] = tested on: recurrent glioma; conditions: cited from earlier work; for 6 mo OS / 6 mo PFS / 9 mo OS / 9 mo PFS: BEV monotherapy
[2] = BEV serum pharmacokinetics (Phase 1 MRZ + BEV); assay type: in vivo, human; conditions: for BEV pharmacokinetic parameters: effect of co-administration: with MRZ
Protocol: The drugs were infused on 28-Day Cycles. Tumor response is assessed every other cycle by RANO criteria.

[3] = tested on: WHO Grade IV Malignant Glioma; assay: Phase 1/2 MRZ + BEV and MRZ monotherapy in recurrent G4 MG: tumor response by RANO, PFS, OS; assay type: in vivo, human; conditions: for Best Response NE (2), patients: MRZ monotherapy ITT
Source text: The drugs were infused on 28-Day Cycles.
Tumor response, including PD activity, progression-free survival (PFS), and overall survival (OS) will be assessed. Tumor response will be assessed by the Investigators using RANO 2010 criteria. The overall confirmed response rate will be presented. The response rate, PFS, and OS will also be tabulated by dose cohorts in Part 1 Phase 1 and for all response-evaluable patients in Part 2 Phase 2 and Part 3 Phase 2. Endpoints of response based on tumor assessments will be calculated for subjects who received at least 3 doses of MRZ and had at least 1 post-dose tumor evaluation.

[4] = Quantitative whole body autoradiography: distribution to brain; assay type: in vivo, rat; conditions: rats
Source text: The definition of marizomib is understood to include marizomib as well as pharmaceutically acceptable salts, prodrugs, solvates, hydrates, tautomers, or isomers thereof. In specific embodiments, the term marizomib refers to Compound 1 or a pharmaceutically acceptable salt thereof. Without wishing to be bound by theory, marizomib is a proteasome inhibitor with unique features compared to other proteasome inhibitors. For example, marizomib inhibits all three catalytic activities of the proteasome and is capable of crossing the blood brain barrier (BBB). […] Radiolabeled marizomib has shown 30% CNS biodistribution compared with blood levels in rats. Marizomib can elicit a significant anti-tumor effect in a rodent model of malignant glioma.

[5] = tested on: human glioblastoma (GBM) cell lines; assay: Migration and matrix invasion of GBM cell lines; assay type: cell-based; conditions: either of two GBM lines
Source text: In vitro studies of multiple glioma cell lines were highly sensitive to MRZ. […] Treatment with MRZ decreased matrix invasion by either of two GBM lines by approximately 90%, a highly significant effect.

[6] = BELOB Trial, BEV monotherapy (Taal et al., 2014)
[7] = BELOB trial BEV monotherapy arm (Taal et al., 2014)
[8] = Heiland (Freiburg, Germany), All Pts
[9] = Heiland (Freiburg, Germany), Methylated
[10] = Heiland (Freiburg, Germany), Unmethylated MGMT promoter
[11] = Taal (BELOB), Unmethylated MGMT promoter
[12] = Wick (EORTC 26101 P2), Methylated
[13] = Wick (EORTC 26101 P2), Unmethylated MGMT promoter
[14] = BEV 10 mg/kg IV, serum, C1D15, marizomib 0.7 mg/m^2 cohort
[15] = BEV 10 mg/kg IV, serum, C1D15, marizomib 0.8 mg/m^2 cohort
[16] = BEV 10 mg/kg IV, serum, C1D15, marizomib […]^2 cohort
[17] = BEV PK, C1D15, MRZ 0.7 mg/m^2 cohort (17 May 2016)
[18] = BEV PK, C1D15, MRZ 0.7 mg/m^2 cohort (Table 43)
[19] = BEV PK, C1D15, MRZ 0.8 mg/m^2 cohort (17 May 2016)
[20] = BEV PK, C1D15, MRZ 0.8 mg/m^2 cohort (Table 43)
[21] = across all dose cohorts, BEV 10 mg/kg with MRZ
[22] = MRZ + BEV N = 10, MRZ monotherapy N = 7
[23] = MRZ + BEV N = 22, MRZ monotherapy N = 18
[24] = MRZ monotherapy 0.8 mg/m^2, first 15 recurrent glioma patients

bevacizumab [reference compound]
6 Months PFS, all patients [1, 6]: 16%
6 Months PFS, uMGMT Promoter [1, 6]: 8%
6 mo PFS, All [1, 7]: 16%
6 mo PFS, uMGMT Promoter [1, 7]: 8%
6 mo OS ([1]; Field (CABARET), All Pts): 61%
6 mo PFS ([1]; Field (CABARET), All Pts): 18%
9 mo OS ([1]; Field (CABARET), All Pts): 39%
9 mo PFS ([1]; Field (CABARET), All Pts): 6%
6 mo Overall Survival, All Pts ([1]; Field (CABARET)): 61%
6 mo Progression Free Survival, All Pts ([1]; Field (CABARET)): 18%
9 mo Overall Survival, All Pts ([1]; Field (CABARET)): 39%
9 mo Progression Free Survival, All Pts ([1]; Field (CABARET)): 6%
12 Mo. Overall Survival, All Pts ([1]; Field (CABARET)): 24%
6 mo OS [1, 8]: 18%
9 mo OS [1, 8]: 30%
9 mo PFS [1, 8]: 0%
6 mo OS [1, 9]: 58%
6 mo PFS [1, 9]: 38%
9 mo OS [1, 9]: 40%
9 mo PFS [1, 9]: 22%
6 mo OS [1, 10]: 25%
6 mo PFS [1, 10]: 10%
9 mo PFS [1, 10]: 0%
6 mo Overall Survival, All Pts ([1]; Heiland (Freiburg, Germany)): 18%
6 mo Overall Survival, Methylated ([1]; Heiland (Freiburg, Germany)): 58%
6 mo Overall Survival, Unmethylated ([1]; Heiland (Freiburg, Germany)): 25%
6 mo Progression Free Survival, Methylated ([1]; Heiland (Freiburg, Germany)): 38%
6 mo Progression Free Survival, Unmethylated ([1]; Heiland (Freiburg, Germany)): 10%
9 mo Overall Survival, All Pts ([1]; Heiland (Freiburg, Germany)): 30%
9 mo Overall Survival, Methylated ([1]; Heiland (Freiburg, Germany)): 40%
9 mo Progression Free Survival, All Pts ([1]; Heiland (Freiburg, Germany)): 0%
9 mo Progression Free Survival, Methylated ([1]; Heiland (Freiburg, Germany)): 22%
9 mo Progression Free Survival, Unmethylated ([1]; Heiland (Freiburg, Germany)): 0%
12 Mo. Overall Survival, All Pts ([1]; Heiland (Freiburg, Germany)): 10%
12 Mo. Overall Survival, Methylated ([1]; Heiland (Freiburg, Germany)): 24%
12 Mo. Progression Free Survival, All Pts ([1]; Heiland (Freiburg, Germany)): 0%
12 Mo. Progression Free Survival, Methylated ([1]; Heiland (Freiburg, Germany)): 10%
12 Mo. Progression Free Survival, Unmethylated ([1]; Heiland (Freiburg, Germany)): 0%
6 mo OS ([1]; Taal (BELOB), All Pts): 62%
6 mo PFS ([1]; Taal (BELOB), All Pts): 16%
9 mo OS ([1]; Taal (BELOB), All Pts): 45%
9 mo PFS ([1]; Taal (BELOB), All Pts): 8%
6 mo OS ([1]; Taal (BELOB), Methylated): 83%
6 mo PFS ([1]; Taal (BELOB), Methylated): 33%
9 mo OS ([1]; Taal (BELOB), Methylated): 67%
9 mo PFS ([1]; Taal (BELOB), Methylated): 22%
6 mo OS [1, 11]: 50%
6 mo PFS [1, 11]: 8%
9 mo PFS [1, 11]: 0%
6 mo Overall Survival, All Pts ([1]; Taal (BELOB)): 62%
6 mo Overall Survival, Methylated ([1]; Taal (BELOB)): 83%
6 mo Overall Survival, Unmethylated ([1]; Taal (BELOB)): 50%
6 mo Progression Free Survival, All Pts ([1]; Taal (BELOB)): 16%
6 mo Progression Free Survival, Methylated ([1]; Taal (BELOB)): 33%
6 mo Progression Free Survival, Unmethylated ([1]; Taal (BELOB)): 8%
9 mo Overall Survival, All Pts ([1]; Taal (BELOB)): 45%
9 mo Overall Survival, Methylated ([1]; Taal (BELOB)): 67%
9 mo Progression Free Survival, Methylated ([1]; Taal (BELOB)): 22%
9 mo Progression Free Survival, Unmethylated ([1]; Taal (BELOB)): 0%
12 Mo. Overall Survival, All Pts ([1]; Taal (BELOB)): 26%
12 Mo. Overall Survival, Methylated ([1]; Taal (BELOB)): 56%
12 Mo. Overall Survival, Unmethylated ([1]; Taal (BELOB)): 8%
12 Mo. Progression Free Survival, Unmethylated ([1]; Taal (BELOB)): 0%
6 mo PFS ([1]; Wick (EORTC 26101 P2), All Pts): 14%
9 mo PFS ([1]; Wick (EORTC 26101 P2), All Pts): 9%
6 mo PFS [1, 12]: 25%
9 mo PFS [1, 12]: 9%
6 mo PFS [1, 13]: 10%
9 mo PFS [1, 13]: 10%
6 mo Progression Free Survival, All Pts ([1]; Wick (EORTC 26101 P2)): 14%
6 mo Progression Free Survival, Methylated ([1]; Wick (EORTC 26101 P2)): 25%
6 mo Progression Free Survival, Unmethylated ([1]; Wick (EORTC 26101 P2)): 10%
9 mo Progression Free Survival, All Pts ([1]; Wick (EORTC 26101 P2)): 9%
9 mo Progression Free Survival, Methylated ([1]; Wick (EORTC 26101 P2)): 9%
9 mo Progression Free Survival, Unmethylated ([1]; Wick (EORTC 26101 P2)): 10%
12 Mo. Progression Free Survival, All Pts ([1]; Wick (EORTC 26101 P2)): 8%
12 Mo. Progression Free Survival, Methylated ([1]; Wick (EORTC 26101 P2)): 9%
12 Mo. Progression Free Survival, Unmethylated ([1]; Wick (EORTC 26101 P2)): 10%
6-month progression-free survival (PFS) rate ([1]; recurrent G4 MG): ~43%
median overall survival (OS) ([1]; recurrent G4 MG): ~9 months
Cmax D1 ([2]; BEV 10 mg/kg IV, serum, C1D1, marizomib 0.7 mg/m^2 cohort): 193 ± 8 (2) μg/mL
Cmax D1 ([2]; BEV 10 mg/kg IV, serum, C1D1, marizomib 0.8 mg/m^2 cohort): 267 ± 13.3 (3) μg/mL
Cmax D1 ([2]; BEV 10 mg/kg IV, serum, C1D1, marizomib […]^2 cohort): 275 ± 37.5 (6) μg/mL
Cmax D15 [2, 14]: 402 ± 123 (3) μg/mL
Cmin D15 [2, 14]: 81.1 ± 17.4 (2) μg/mL
Cmax D15 [2, 15]: 380 ± 56.5 (2) μg/mL
Cmin D15 [2, 15]: 85.0 ± 9.87 (3) μg/mL
Cmax D15 [2, 16]: 351 ± 46.6 (5) μg/mL
Cmin D15 [2, 16]: 89.7 ± 6.2 (6) μg/mL
Cmax D1 ([2]; BEV PK, C1D1, MRZ 0.7 mg/m^2 cohort (17 May 2016)): 282 ± 89 (3) μg/mL
Cmax D1 ([2]; BEV PK, C1D1, MRZ 0.7 mg/m^2 cohort (Table 43)): 193 ± 8 (2) μg/mL
Cmax D1 ([2]; BEV PK, C1D1, MRZ 0.8 mg/m^2 cohort (17 May 2016)): 267 ± 133 (3) μg/mL
Cmax D1 ([2]; BEV PK, C1D1, MRZ 0.8 mg/m^2 cohort (Table 43)): 267 ± 13.3 (3) μg/mL
Cmax D15 [2, 17]: 402 ± 123 (3) μg/mL
Cmin D15 [2, 17]: 114 ± 34 (3) μg/mL
Cmax D15 [2, 18]: 402 ± 123 (3) μg/mL
Cmin D15 [2, 18]: 81.1 ± 17.4 (2) μg/mL
Cmax D15 [2, 19]: 404 ± 40 (3) μg/mL
Cmin D15 [2, 19]: 85 ± 9.9 (3) μg/mL
Cmax D15 [2, 20]: 380 ± 56.5 (2) μg/mL
Cmin D15 [2, 20]: 85.0 ± 9.87 (3) μg/mL
Mean Day 15 Cmax of BEV ([2]; Study 108, BEV 10 mg/kg with MRZ): 379 µg/mL
mean Cmax of bevacizumab on Day 1 [2, 21]: 275 µg/mL
mean Cmax of bevacizumab on Day 1 (second value so printed) [2, 21]: 379 µg/mL
mean Cmin of bevacizumab on Day 15 [2, 21]: 95 µg/mL
BEV pharmacokinetic parameters: effect of co-administration [2]: not affected by co-administration
BEV pharmacokinetic parameters: effect of co-administration ([2]; listed as BEV): no effect of MRZ on BEV pharmacokinetics; also recorded: not affected by co-administration of MRZ

C[C@@]12OC(=O)[C@]1([C@@H](O)[C@@H]1C=CCCC1)NC(=O)[C@@H]2CCCl [marizomib]
OS 6 mo % ([3]; All Patients): 64%
OS 9 mo % ([3]; All Patients): 64%
Median OS, methylated MGMT promoter [3, 22]: Undefined
Median PFS, methylated MGMT promoter [3, 22]: 1.7 Months
OS 6 Months, methylated [3, 22]: 83%
OS 9 Months, methylated [3, 22]: 83%
Median OS, unmethylated MGMT promoter [3, 23]: Undefined
Median PFS, unmethylated MGMT promoter [3, 23]: 1.9 Months
OS 6 Months, unmethylated [3, 23]: 65%
OS 9 Months, unmethylated [3, 23]: 65%
partial remission, patients [3, 24]: 1
stable disease, additional patients [3, 24]: 2
Best Response NE (2), patients ([3]; methylated, N = 7): 0
Best Response NE (2), patients ([3]; unknown, N = 5): 1
Best Response NE (2), patients ([3]; unmethylated, N = 18): 1
PFS 3 mo, methylated ([3]; MRZ monotherapy, N = 7): 40%
PFS 3 mo, unmethylated ([3]; MRZ monotherapy, N = 18): 20%
patients on the study for ≥4 cycles ([3]; MRZ monotherapy, N = 30): Six
progression on marizomib alone ([3]; MRZ monotherapy, N = 30): most patients demonstrated rapid progression
Best Response, Pt 0511 ([3]; MRZ monotherapy, 2nd recurrence, current cycle 10): PR (≥50% decrease compared with baseline in the sum of products of perpendicular diameters of all measurable enhancing lesions sustained for at least 4 weeks)
OS 6 mo % ([3]; Methylated MGMT Promoter): 83%
OS 9 mo % ([3]; Methylated MGMT Promoter): 83%
OS 6 mo % ([3]; Unmethylated MGMT Promoter): 65%
OS 9 mo % ([3]; Unmethylated MGMT Promoter): 65%
patients found to respond to marizomib monotherapy ([3]; ≥ stable disease and >4 cycles (Table 38)): four
distribution to brain relative to plasma Cmax ([4]; quantitative whole body autoradiography): ~30%
CNS biodistribution compared with blood levels ([4]; radiolabeled marizomib): 30%
decrease of matrix invasion [5]: approximately 90%
